Experimental data: patent US5190741A, “Agents for diagnosing and treating melanomas, aromatic halogenated derivatives usable as such agents and their preparation” (Institut National de la Sante et de la Recherche Medicale …, priority 1989, dated 1993)
Like-named read-outs stand apart in the source and are kept apart here.

Assays:
[1] = tested on: 6 weeks old OF 1 male mice; assay: LD50 determination, i.v. (Karber and Behrens); details: mouse, in vivo, iv
Text: (§1) The determination of the LD50 is made in the mouse after i.v. injection of the molecules according to the methodology described by Karber and Behrens.
(§2) 6 weeks old OF 1 male mice

[2] = LD50 determination, i.v. (Karber and Behrens); details: mouse, in vivo, iv
Text: as §1, §2

[3] = tested on: B16 murine melanoma; assay: Autoradiograms, C57 BL6 mice bearing B16; type: in vivo, mouse
Protocol: (§3) The autoradiograms are carried out in mice bearing grafted melanomas:
a. C57 BL6 bearing the B16 murine melanoma.
(§4) The animals bearing grafted tumors receive the labelled compounds in the form of the hydrochloride in saline solution (3.7 to 5×10^5 Bq/animal) in a caudal vein. At different time intervals after the administration of the compounds (from 15 minutes to 24 hours) the mice are anesthetized with ether and plunged into liquid nitrogen.
(§5) 30 μm sections, parallel to a sagittal plane, are prepared in a freezing microtome (TS 260, SLEE) according to the protocol described by Ullberg.

[4] = tested on: Beu melanic human melanoma; assay: Scintillation imaging, nu/nu SSCUP nude mice bearing Beu; type: in vivo; details: 3 to 17 h after injection
Text: The mice bearing grafted tumors are anesthetized by the i.p. injection of sodium pentobarbital 1/5 and immobilized under a scintillation camera (Gammatome II, CGR) equipped with a pinhole 3-360 collimator, sensitivity 3.2 10^-4.
nu/nu SSCUP nudes bearing human melanomas Beu and Dau.
The scanning observations have also been carried out after the injection of B into the following mice:
nu/nu SSCUP nudes bearing the Beu heterotransplant.

[5] = tested on: Beu melanic human melanoma; assay: Autoradiograms, nu/nu SSCUP nude mice bearing Beu; type: in vivo
Protocol: as §3
b. nu/nu SSCUP nudes bearing heterotransplants of melanic (Beu) or amelanic (Dau) human melanomas).
as §4, §5

[6] = Tissue distribution in Swiss nu/nu SSCUP mice bearing Dau; type: in vivo, human; details: mouse, iv, 3 umol/animal
Protocol: The study of the tissue distribution of the ^125 I labelled compounds was performed in mice bearing grafted melanomas (cf. autoradiograms above). […] The animals are sacrificed at different time intervals of 1 to 24 hours after the injection. The blood is collected and the principal organs are excised. Aliquots are weighed and the radioactivity of the samples is measured in a […] 1191 counter (analytic tracer). The counting yield for iodine 125 is 60%. The results are expressed: as a percentage of the injected dose bound per g of tissue (% ID/g); in the form of the ratios [formula] This ratio reflects more precisely the selectivity of a molecule for an organ (tables 2, 4, 6, 8, 10 and 12).

[7] = intestine, read-out: intestine % ID/g
[8] = kidney, read-out: kidney % ID/g
[9] = muscle, read-out: muscle % ID/g
[10] = pancreas, read-out: pancreas % ID/g
[11] = plasma, read-out: plasma % ID/g
[12] = spleen, read-out: spleen % ID/g
[13] = stomach, read-out: stomach % ID/g
[14] = submaxillary glands, read-out: submaxillary glands % ID/g

CCNCCNC(=O)c1ccc(I)cc1 [Derivative B, N-(2-ethylaminoethyl) 4-iodo benzamide]
LD 0 [1]: 150 mg/kg
LD 100 [1]: 200 mg/kg
LD50 [2]: 175 mg/kg
darkening of the film at the tumor ([3]; 1 h after injection): qualitatively as great as after the injection of A
tumoral radioactive concentration (autoradiogram) ([3]; 4 h and particularly 6 h, compared with A): more intense tumoral radioactive concentration
tumor visibility on autoradiogram ([3]; 24 h after i.v.): still visible
radioactivity remaining in the organism ([3]; 24 h after injection): no radioactivity remains in the organism
tumoral definition [4]: very good tumoral definition
darkening along the circumference of the tumor ([5]; 6 h after injection): more pronounced darkening along the circumference of the tumor
time up to which tumor is visible on autoradiogram ([5]; after injection): up to 6 h
tissue uptake at 1 h ([6]; blood, read-out: blood % ID/g): 0.89 %ID/g
tissue uptake at 2 h ([6]; blood, read-out: blood % ID/g): 0.93 %ID/g
tissue uptake at 4 h ([6]; blood, read-out: blood % ID/g): 0.3 %ID/g
tissue uptake at 6 h ([6]; blood, read-out: blood % ID/g): 0.53 %ID/g
tissue uptake at 24 h ([6]; blood, read-out: blood % ID/g): 0.009 %ID/g
tissue uptake at 8 h ([6]; blood, read-out: blood % ID/g): 0.11 %ID/g
tissue uptake at 12 h ([6]; blood, read-out: blood % ID/g): 0.015 %ID/g
tissue uptake at 1 h ([6]; brain, read-out: brain % ID/g): 1.28 %ID/g
tissue uptake at 2 h ([6]; brain, read-out: brain % ID/g): 1.25 %ID/g
tissue uptake at 4 h ([6]; brain, read-out: brain % ID/g): 0.63 %ID/g
tissue uptake at 6 h ([6]; brain, read-out: brain % ID/g): 0.22 %ID/g
tissue uptake at 24 h ([6]; brain, read-out: brain % ID/g): 0.002 %ID/g
tissue uptake at 8 h ([6]; brain, read-out: brain % ID/g): 0.14 %ID/g
tissue uptake at 12 h ([6]; brain, read-out: brain % ID/g): 0.01 %ID/g
tissue uptake at 1 h ([6]; eye, read-out: eye % ID/g): 0.51 %ID/g
tissue uptake at 2 h ([6]; eye, read-out: eye % ID/g): 0.5 %ID/g
tissue uptake at 4 h ([6]; eye, read-out: eye % ID/g): 0.21 %ID/g
tissue uptake at 6 h ([6]; eye, read-out: eye % ID/g): 0.19 %ID/g
tissue uptake at 24 h ([6]; eye, read-out: eye % ID/g): 0.008 %ID/g
tissue uptake at 8 h ([6]; eye, read-out: eye % ID/g): 0.06 %ID/g
tissue uptake at 12 h ([6]; eye, read-out: eye % ID/g): 0.01 %ID/g
tissue uptake at 1 h [6, 7]: 3.1 %ID/g
tissue uptake at 2 h [6, 7]: 2.57 %ID/g
tissue uptake at 4 h [6, 7]: 1.19 %ID/g
tissue uptake at 6 h [6, 7]: 1.05 %ID/g
tissue uptake at 8 h [6, 7]: 0.36 %ID/g
tissue uptake at 12 h [6, 7]: 0.05 %ID/g
tissue uptake at 24 h [6, 7]: 0.01 %ID/g
tissue uptake at 1 h [6, 8]: 8.15 %ID/g
tissue uptake at 2 h [6, 8]: 6.17 %ID/g
tissue uptake at 4 h [6, 8]: 2.51 %ID/g
tissue uptake at 6 h [6, 8]: 1.07 %ID/g
tissue uptake at 24 h [6, 8]: 0.04 %ID/g
tissue uptake at 8 h [6, 8]: 0.42 %ID/g
tissue uptake at 12 h [6, 8]: 0.08 %ID/g
tissue uptake at 1 h ([6]; liver, read-out: liver % ID/g): 4.95 %ID/g
tissue uptake at 2 h ([6]; liver, read-out: liver % ID/g): 3.16 %ID/g
tissue uptake at 4 h ([6]; liver, read-out: liver % ID/g): 1.52 %ID/g
tissue uptake at 6 h ([6]; liver, read-out: liver % ID/g): 0.74 %ID/g
tissue uptake at 24 h ([6]; liver, read-out: liver % ID/g): 0.19 %ID/g
tissue uptake at 8 h ([6]; liver, read-out: liver % ID/g): 0.63 %ID/g
tissue uptake at 12 h ([6]; liver, read-out: liver % ID/g): 0.2 %ID/g
tissue uptake at 1 h ([6]; lungs, read-out: lungs % ID/g): 5.35 %ID/g
tissue uptake at 2 h ([6]; lungs, read-out: lungs % ID/g): 5.56 %ID/g
tissue uptake at 4 h ([6]; lungs, read-out: lungs % ID/g): 2.63 %ID/g
tissue uptake at 6 h ([6]; lungs, read-out: lungs % ID/g): 0.93 %ID/g
tissue uptake at 8 h ([6]; lungs, read-out: lungs % ID/g): 0.43 %ID/g
tissue uptake at 12 h ([6]; lungs, read-out: lungs % ID/g): 0.04 %ID/g
tissue uptake at 24 h ([6]; lungs, read-out: lungs % ID/g): 0.02 %ID/g
tissue uptake at 1 h [6, 9]: 1.04 %ID/g
tissue uptake at 2 h [6, 9]: 6.86 %ID/g
tissue uptake at 4 h [6, 9]: 0.41 %ID/g
tissue uptake at 6 h [6, 9]: 0.12 %ID/g
tissue uptake at 24 h [6, 9]: 0.002 %ID/g
tissue uptake at 8 h [6, 9]: 0.07 %ID/g
tissue uptake at 12 h [6, 9]: 0.008 %ID/g
tissue uptake at 1 h [6, 10]: 2.86 %ID/g
tissue uptake at 2 h [6, 10]: 2.13 %ID/g
tissue uptake at 4 h [6, 10]: 0.83 %ID/g
tissue uptake at 6 h [6, 10]: 0.4 %ID/g
tissue uptake at 8 h [6, 10]: 0.14 %ID/g
tissue uptake at 12 h [6, 10]: 0.08 %ID/g
tissue uptake at 24 h [6, 10]: 0.01 %ID/g
tissue uptake at 1 h [6, 11]: 0.71 %ID/g
tissue uptake at 2 h [6, 11]: 0.85 %ID/g
tissue uptake at 4 h [6, 11]: 0.28 %ID/g
tissue uptake at 6 h [6, 11]: 0.61 %ID/g
tissue uptake at 24 h [6, 11]: 0.009 %ID/g
tissue uptake at 8 h [6, 11]: 0.13 %ID/g
tissue uptake at 12 h [6, 11]: 0.02 %ID/g
tissue uptake at 1 h [6, 12]: 2.54 %ID/g
tissue uptake at 2 h [6, 12]: 2.02 %ID/g
tissue uptake at 4 h [6, 12]: 0.62 %ID/g
tissue uptake at 6 h [6, 12]: 0.33 %ID/g
tissue uptake at 8 h [6, 12]: 0.14 %ID/g
tissue uptake at 12 h [6, 12]: 0.05 %ID/g
tissue uptake at 24 h [6, 12]: 0.09 %ID/g
tissue uptake at 1 h [6, 13]: 2.38 %ID/g
tissue uptake at 2 h [6, 13]: 3.03 %ID/g
tissue uptake at 4 h [6, 13]: 1.23 %ID/g
tissue uptake at 6 h [6, 13]: 2 ± 0.253 %ID/g
tissue uptake at 8 h [6, 13]: 0.58 %ID/g
tissue uptake at 12 h [6, 13]: 0.1 %ID/g
tissue uptake at 24 h [6, 13]: 0.02 %ID/g
tissue uptake at 1 h [6, 14]: 4.28 %ID/g
tissue uptake at 2 h [6, 14]: 4.14 %ID/g
tissue uptake at 4 h [6, 14]: 1.68 %ID/g
tissue uptake at 6 h [6, 14]: 2.74 %ID/g
tissue uptake at 8 h [6, 14]: 0.39 %ID/g
tissue uptake at 12 h [6, 14]: 0.04 %ID/g
tissue uptake at 24 h [6, 14]: 0.02 %ID/g
tissue uptake at 1 h ([6]; tumor, read-out: tumor % ID/g): 1.19 %ID/g
tissue uptake at 2 h ([6]; tumor, read-out: tumor % ID/g): 1.27 %ID/g
tissue uptake at 4 h ([6]; tumor, read-out: tumor % ID/g): 0.93 %ID/g
tissue uptake at 6 h ([6]; tumor, read-out: tumor % ID/g): 0.34 %ID/g
tissue uptake at 24 h ([6]; tumor, read-out: tumor % ID/g): 0.007 %ID/g
tissue uptake at 8 h ([6]; tumor, read-out: tumor % ID/g): 0.12 %ID/g
tissue uptake at 12 h ([6]; tumor, read-out: tumor % ID/g): 0.02 %ID/g
